The subject of one assay is protein kinase C. To be noted: statement in words, cited from earlier work.
Assay [1] deals with Human leukemia cells U937. In words: Viability of U937 cells after γ-irradiation (propidium iodide exclusion, FACS). It is filed as cell-based. To be noted: 3 nM bryostatin 1 for 24 hours, then 500 or 1000 rads; viability 72 hours after irradiation; triplicate. On the procedure:
Human leukemia cells U937 were treated for 24 hours with either 3 nM bryostatin 1 or the control solution, i.e., the vehicle for bryostatin 1. The cells were then irradiated with either 500 or 1000 rads of γ-irradiation. Seventy-two hours after irradiation, cellular viability was examined using propidium iodide exclusion and quantified by FACS analysis as previously described in Ways et al., Cell Growth & Differentiation 1994, 5: 1195-1203. Viability assays were performed in triplicate. […] Similar results were obtained in several repeated experiments.

In another assay the target is T1, PKC-β (Homo sapiens, UniProt P05771).
T1 construct: endogenous in cells; host or cells: U937 human leukemia cells
T1 sequence (P05771 whole entry): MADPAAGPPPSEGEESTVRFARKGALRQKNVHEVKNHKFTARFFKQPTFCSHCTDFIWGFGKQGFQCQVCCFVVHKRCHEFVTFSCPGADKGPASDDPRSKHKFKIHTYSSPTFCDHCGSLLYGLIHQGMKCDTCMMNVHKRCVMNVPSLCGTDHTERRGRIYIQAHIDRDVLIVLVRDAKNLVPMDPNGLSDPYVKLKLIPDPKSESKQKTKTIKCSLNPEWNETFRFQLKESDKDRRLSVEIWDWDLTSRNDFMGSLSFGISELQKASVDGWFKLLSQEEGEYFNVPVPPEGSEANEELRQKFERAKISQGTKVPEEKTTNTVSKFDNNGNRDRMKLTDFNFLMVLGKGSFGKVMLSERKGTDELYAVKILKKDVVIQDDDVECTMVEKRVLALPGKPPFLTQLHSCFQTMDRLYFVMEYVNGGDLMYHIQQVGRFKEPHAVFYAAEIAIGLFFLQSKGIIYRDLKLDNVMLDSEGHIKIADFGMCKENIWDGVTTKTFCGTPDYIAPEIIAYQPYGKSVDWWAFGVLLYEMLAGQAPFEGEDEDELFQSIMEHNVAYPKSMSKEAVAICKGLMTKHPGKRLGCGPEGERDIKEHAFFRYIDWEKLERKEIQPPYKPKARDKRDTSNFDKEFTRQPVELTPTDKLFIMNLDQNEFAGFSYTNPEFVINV
In words: Western blot of PKC-β in bryostatin 1 treated U937 cells. The assay is classed as cell-based. As for the experimental part:
Human leukemia cells U937 in the amount of 0.5×10^6 were treated with various amount of bryostatin 1 for 24 hours. Subsequently, the cells were solubilized for preparation of protein samples according to a routine procedure. The protein samples from bryostatin treated cells were then used in Western blot analysis with a protein kinase C-β specific antiserum previously described in Ways et al., Cell Growth & Differentiation 1994, 5: 1195-1203. […] In a repeated experiment, similar results were obtained.

A value given as a limit tells only on which side of the number the result lay.

As for `CN(C)C[C@@H]1CCn2cc(c3ccccc32)C2=C(C(=O)NC2=O)c2cn(c3ccccc23)CCO1.Cl` [Example 5g, (S)-3,4-[N, N′-1,1′-((2″-ethoxy)-3′″(O)-4′″-(N,N-dimethylamino)-butane)-bis-(3,3′-indolyl)]-1(H)-pyrrole-2,5-dione Hydrochloride Salt], in the assay with protein kinase C (selective to protein kinase C over other kinases), the isozyme selectivity entry is “selective for the beta-1 and beta-2 isozymes”. In addition, the “protein kinase C inhibition” value in the assay on protein kinase C (no value) was “potent protein kinase C inhibitor”.

As for `CCC/C=C/C=C/C(=O)O[C@H]1/C(=C/C(=O)OC)C[C@H]2C[C@H]([C@@H](C)O)OC(=O)C[C@H](O)C[C@@H]3C[C@H](OC(C)=O)C(C)(C)[C@](O)(C[C@@H]4C/C(=C/C(=O)OC)C[C@H](/C=C/C(C)(C)[C@]1(O)O2)O4)O3` [bryostatin 1], in assay [1], the γ-irradiation-induced apoptosis result is “enhanced”. For the same compound, the “time within which bryostatin treatment caused PKC-β activity to decrease” value is at most 24 h on PKC-β (1 nM bryostatin) and at most 2 h at PKC-β (10 nM bryostatin).
